Experimental findings from PMC5693604 (Cell chemical biology, 2017) are described below.

The IC50 is the point on the concentration scale where inhibition reaches its midpoint. Higher therefore signals weaker potency.

Assay type in all cases: cell-based
In experiment [1] the target is T1, CHEK2 (Homo sapiens, UniProt O96017). The experiment is described as follows: competitive gel-based ABPP with probe […] in HEK293T cells.
Experiment [2] has as its target T2, NT5DC1 (5'-Nucleotidase-Domain Containing 1) (Homo sapiens, UniProt Q5TFE4).
T2 sequence (Q5TFE4 1-455): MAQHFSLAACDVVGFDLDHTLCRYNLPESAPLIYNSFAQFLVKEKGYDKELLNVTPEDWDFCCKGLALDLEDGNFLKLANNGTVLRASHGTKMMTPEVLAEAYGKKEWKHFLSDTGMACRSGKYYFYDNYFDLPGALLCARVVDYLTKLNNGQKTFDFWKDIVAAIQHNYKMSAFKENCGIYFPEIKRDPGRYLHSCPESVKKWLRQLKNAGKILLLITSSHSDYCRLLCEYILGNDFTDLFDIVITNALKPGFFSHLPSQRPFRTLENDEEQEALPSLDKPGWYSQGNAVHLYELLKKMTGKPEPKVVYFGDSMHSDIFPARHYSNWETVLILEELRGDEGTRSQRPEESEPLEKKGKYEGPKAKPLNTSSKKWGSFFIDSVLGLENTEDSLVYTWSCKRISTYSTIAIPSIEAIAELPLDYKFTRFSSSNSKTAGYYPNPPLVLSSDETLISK
Described as above.

The target of experiment [3] is T1, CHEK2. The experiment is described as follows: FRET Z'-LYTE kinase assay.

Molecules are shown by their SMILES.

T1 sequence (O96017 whole entry): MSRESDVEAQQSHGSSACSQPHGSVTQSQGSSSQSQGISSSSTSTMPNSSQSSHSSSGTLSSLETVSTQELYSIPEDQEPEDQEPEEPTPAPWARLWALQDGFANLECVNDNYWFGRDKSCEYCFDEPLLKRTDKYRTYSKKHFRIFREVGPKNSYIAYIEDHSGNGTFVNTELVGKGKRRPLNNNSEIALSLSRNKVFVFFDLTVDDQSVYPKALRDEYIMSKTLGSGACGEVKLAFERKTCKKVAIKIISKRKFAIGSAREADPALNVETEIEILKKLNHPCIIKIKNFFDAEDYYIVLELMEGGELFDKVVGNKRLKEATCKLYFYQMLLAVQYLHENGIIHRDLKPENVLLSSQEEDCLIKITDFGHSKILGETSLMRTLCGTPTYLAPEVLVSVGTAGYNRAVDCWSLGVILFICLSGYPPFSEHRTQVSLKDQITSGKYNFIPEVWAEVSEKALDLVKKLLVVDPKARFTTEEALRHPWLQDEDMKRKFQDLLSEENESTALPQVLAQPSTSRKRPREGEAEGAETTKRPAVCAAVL

Consider `C=CC(=O)N[C@@H]1CN(c2nc(Nc3cn(C)nc3OC)c3ncn(C)c3n2)C[C@H]1F` [compound 2, N-((3R,4R)-4-Fluoro-1-(6-((3-methoxy-1-methyl-1H-pyrazol-4-yl)amino)-9-methyl-9H-purin-2-yl)pyrrolidine-3-yl)acrylamide], for which, in experiment [1], the IC50 is roughly 4000 nM.
Consider `C=CC(=O)Nc1cccc(Nc2nc(Nc3ccc(N4CCN(C(C)=O)CC4)cc3OC)ncc2C(F)(F)F)c1` [compound 3, rociletinib], for which the IC50 in experiment [2] was roughly 360 nM; in experiment [3], 350 nM.
